In ChEMBL document CHEMBL1140941 (J Med Chem, 2009):
pIC50: −log10 of the molar value. Active and inactive are the calls of the source. No cut-off for these calls is given here.

Tests used:
[1] = Tmax in CD rat at 3 mg/kg, po; format: ADME, organism-based; set-up: dose 3 mg/kg, route oral; details: in vivo
[2] = target: Mineralocorticoid receptor (Homo sapiens, UniProt P08235); assay: Antagonist activity at gal-MR expressed in african green monkey CV1 cells co-expressing MH100 by luciferase reporter gene assay; format: functional, cell-based, CV-1
[3] = target: Retinoic acid receptor gamma (Homo sapiens) (UniProt P13631); assay: Agonist activity at gal-RARgamma expressed in african green monkey CV1 cells co-expressing MH100 by luciferase reporter gene assay; format: functional, cell-based; details: CV-1
[4] = target: Vitamin D3 receptor (Homo sapiens) (UniProt P11473); assay: Agonist activity at VP16-VDR expressed in african green monkey CV1 cells co-expressing MH100 by luciferase reporter gene assay; format: functional, cell-based; details: CV-1
[5] = Volume of distribution in CD rat at 3 mg/kg, iv; format: ADME, organism-based; set-up: dose 3 mg/kg, route intravenous; details: in vivo, read-out: Vdss
[6] = tested on: Mus musculus; assay: Reduction of plasma total cholesterol level in C57BL/6 mouse at 10 mg/kg, po administered for 7 days measured after 3 hrs; format: ADME, organism-based; set-up: dose 10 mg/kg, route oral; details: in vivo
[7] = target: Androgen receptor (Homo sapiens, UniProt P10275); assay: Antagonist activity at gal-AR expressed in african green monkey CV1 cells co-expressing MH100 with GRIP1 co-factor by luciferase reporter gene assay; format: functional, cell-based, CV-1
[8] = target: Oxysterols receptor LXR-alpha (Homo sapiens) (UniProt Q13133); assay: Agonist activity at LXRalpha expressed in african green monkey CV1 cells co-expressing LXRE up to 10 uM by luciferase reporter gene assay relative to control; format: functional, cell-based; details: CV-1
[9] = tested on: Mus musculus; assay: Inhibition of preatherosclerotic lesion in LDLR knockout mouse model at 1 mg/kg, po administered for 6 weeks by en-face analysis; format: functional; set-up: scale not given: the % may be the effect or the level left
[10] = target: Estrogen receptor beta (Homo sapiens) (UniProt Q92731); assay: Antagonist activity at gal-ERbeta expressed in african green monkey CV1 cells co-expressing MH100 by luciferase reporter gene assay; format: functional, cell-based; details: CV-1
[11] = target: T1, Estrogen receptor (Homo sapiens) (UniProt P03372); assay: Agonist activity at gal-ERalpha expressed in african green monkey CV1 cells co-expressing MH100 up to 10 uM by luciferase reporter gene assay relative to control; format: functional, cell-based; details: CV-1
T1 sequence (whole entry): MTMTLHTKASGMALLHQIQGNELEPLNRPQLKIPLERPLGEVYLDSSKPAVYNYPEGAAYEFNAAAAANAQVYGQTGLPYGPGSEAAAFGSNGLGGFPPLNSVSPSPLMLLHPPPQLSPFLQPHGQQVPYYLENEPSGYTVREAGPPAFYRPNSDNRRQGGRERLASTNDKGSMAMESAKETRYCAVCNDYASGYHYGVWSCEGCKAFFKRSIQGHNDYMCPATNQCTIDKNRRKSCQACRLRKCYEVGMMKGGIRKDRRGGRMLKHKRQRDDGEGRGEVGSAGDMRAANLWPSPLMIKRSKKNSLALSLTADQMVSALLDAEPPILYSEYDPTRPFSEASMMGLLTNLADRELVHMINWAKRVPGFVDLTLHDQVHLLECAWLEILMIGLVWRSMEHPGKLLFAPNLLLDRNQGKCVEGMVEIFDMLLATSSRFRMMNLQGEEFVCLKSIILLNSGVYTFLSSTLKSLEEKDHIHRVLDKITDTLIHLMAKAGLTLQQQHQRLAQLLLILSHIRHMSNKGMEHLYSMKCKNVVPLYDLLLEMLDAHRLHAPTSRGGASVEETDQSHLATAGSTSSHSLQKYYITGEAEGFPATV

[12] = Clearance in CD rat at 3 mg/kg, iv; format: ADME, organism-based; set-up: dose 3 mg/kg, route intravenous; details: in vivo
[13] = target: T1, Estrogen receptor (Homo sapiens); assay: Antagonist activity at gal-ERalpha expressed in african green monkey CV1 cells co-expressing MH100 at 10 uM by luciferase reporter gene assay; format: functional, cell-based; details: CV-1
[14] = target: Oxysterols receptor LXR-beta (Homo sapiens) (UniProt P55055); assay: Agonist activity at LXRbeta expressed in african green monkey CV1 cells co-expressing LXRE by luciferase reporter gene assay; format: functional, cell-based; details: CV-1
[15] = target: T2, Mineralocorticoid receptor (Homo sapiens) (UniProt P08235); assay: Agonist activity at gal-MR expressed in african green monkey CV1 cells co-expressing MH100 up to 10 uM by luciferase reporter gene assay relative to control; format: functional, cell-based; details: CV-1
T2 sequence (whole entry): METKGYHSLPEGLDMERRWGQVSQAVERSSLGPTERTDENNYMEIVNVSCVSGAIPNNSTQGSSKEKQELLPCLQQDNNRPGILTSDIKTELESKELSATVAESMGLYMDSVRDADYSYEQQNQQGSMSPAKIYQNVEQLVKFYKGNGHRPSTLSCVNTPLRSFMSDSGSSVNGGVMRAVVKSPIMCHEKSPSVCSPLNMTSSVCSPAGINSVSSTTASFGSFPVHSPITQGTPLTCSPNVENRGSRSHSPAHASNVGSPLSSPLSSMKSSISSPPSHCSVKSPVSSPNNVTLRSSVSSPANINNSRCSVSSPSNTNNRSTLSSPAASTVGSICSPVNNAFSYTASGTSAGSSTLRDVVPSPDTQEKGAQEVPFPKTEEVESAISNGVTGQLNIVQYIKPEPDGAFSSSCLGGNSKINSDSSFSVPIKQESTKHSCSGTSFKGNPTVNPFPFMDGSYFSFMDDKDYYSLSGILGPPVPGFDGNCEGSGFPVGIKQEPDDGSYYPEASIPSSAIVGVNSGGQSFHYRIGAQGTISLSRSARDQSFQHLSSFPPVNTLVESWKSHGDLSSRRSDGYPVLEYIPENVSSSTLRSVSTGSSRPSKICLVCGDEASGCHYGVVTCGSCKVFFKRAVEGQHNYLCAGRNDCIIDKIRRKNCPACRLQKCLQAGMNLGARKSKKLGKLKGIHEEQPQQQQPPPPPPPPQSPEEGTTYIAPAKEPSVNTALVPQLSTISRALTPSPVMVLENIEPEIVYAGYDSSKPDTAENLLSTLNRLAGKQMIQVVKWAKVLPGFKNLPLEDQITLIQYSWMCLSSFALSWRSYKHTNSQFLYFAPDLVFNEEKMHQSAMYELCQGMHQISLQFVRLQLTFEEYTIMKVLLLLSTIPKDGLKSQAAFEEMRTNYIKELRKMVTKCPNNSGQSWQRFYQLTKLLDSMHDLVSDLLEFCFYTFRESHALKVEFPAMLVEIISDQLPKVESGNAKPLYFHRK

[16] = target: T1, Estrogen receptor (Homo sapiens); assay: Agonist activity at gal-ERalpha expressed in african green monkey CV1 cells co-expressing MH100 by luciferase reporter gene assay; format: functional, cell-based; details: CV-1
[17] = target: Nuclear receptor subfamily 1 group I member 2 (Homo sapiens, UniProt O75469); assay: Agonist activity at SXR expressed in african green monkey CV1 cells co-expressing MH100 by luciferase reporter gene assay; format: functional, cell-based; details: cv-1
[18] = target: Oxysterols receptor LXR-alpha (Homo sapiens) (UniProt Q13133); assay: Agonist activity at LXRalpha expressed in african green monkey CV1 cells co-expressing LXRE by luciferase reporter gene assay; format: functional, cell-based; details: CV-1
[19] = target: T2, Mineralocorticoid receptor (Homo sapiens); assay: Agonist activity at gal-MR expressed in african green monkey CV1 cells co-expressing MH100 by luciferase reporter gene assay; format: functional, cell-based; details: CV-1
[20] = target: Estrogen receptor beta (Homo sapiens) (UniProt Q92731); assay: Agonist activity at gal-ERbeta expressed in african green monkey CV1 cells co-expressing MH100 up to 10 uM by luciferase reporter gene assay relative to control; format: functional, cell-based; details: CV-1

Oxysterols receptor LXR-alpha (Homo sapiens), sequence (Q13133 whole entry): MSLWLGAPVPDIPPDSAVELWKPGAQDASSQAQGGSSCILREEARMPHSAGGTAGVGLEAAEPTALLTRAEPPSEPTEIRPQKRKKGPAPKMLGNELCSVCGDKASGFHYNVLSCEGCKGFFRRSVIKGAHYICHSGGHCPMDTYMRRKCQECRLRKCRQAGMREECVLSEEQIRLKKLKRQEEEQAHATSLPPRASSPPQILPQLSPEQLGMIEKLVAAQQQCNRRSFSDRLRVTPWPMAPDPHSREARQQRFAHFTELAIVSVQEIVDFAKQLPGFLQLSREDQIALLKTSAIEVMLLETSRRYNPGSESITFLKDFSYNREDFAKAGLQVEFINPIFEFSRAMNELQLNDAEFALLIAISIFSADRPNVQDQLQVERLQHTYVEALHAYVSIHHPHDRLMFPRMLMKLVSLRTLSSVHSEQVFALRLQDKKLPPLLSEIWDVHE
Estrogen receptor beta (Homo sapiens), sequence (Q92731 whole entry): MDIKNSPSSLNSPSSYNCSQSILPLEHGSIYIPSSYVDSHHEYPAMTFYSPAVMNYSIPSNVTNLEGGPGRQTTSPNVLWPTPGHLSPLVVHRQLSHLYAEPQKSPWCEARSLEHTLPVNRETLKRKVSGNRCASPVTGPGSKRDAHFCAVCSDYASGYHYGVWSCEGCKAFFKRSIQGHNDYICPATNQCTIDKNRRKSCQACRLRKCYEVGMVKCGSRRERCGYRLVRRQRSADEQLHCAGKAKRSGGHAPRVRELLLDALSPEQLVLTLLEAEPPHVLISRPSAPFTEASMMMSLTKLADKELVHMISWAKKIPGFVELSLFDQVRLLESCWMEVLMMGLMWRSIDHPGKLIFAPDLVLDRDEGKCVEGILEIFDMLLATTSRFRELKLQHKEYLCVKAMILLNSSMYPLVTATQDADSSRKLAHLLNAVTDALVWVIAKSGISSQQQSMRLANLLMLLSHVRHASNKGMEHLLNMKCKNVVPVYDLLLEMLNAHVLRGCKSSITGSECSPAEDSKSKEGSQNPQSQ
Vitamin D3 receptor (Homo sapiens), sequence (P11473 whole entry): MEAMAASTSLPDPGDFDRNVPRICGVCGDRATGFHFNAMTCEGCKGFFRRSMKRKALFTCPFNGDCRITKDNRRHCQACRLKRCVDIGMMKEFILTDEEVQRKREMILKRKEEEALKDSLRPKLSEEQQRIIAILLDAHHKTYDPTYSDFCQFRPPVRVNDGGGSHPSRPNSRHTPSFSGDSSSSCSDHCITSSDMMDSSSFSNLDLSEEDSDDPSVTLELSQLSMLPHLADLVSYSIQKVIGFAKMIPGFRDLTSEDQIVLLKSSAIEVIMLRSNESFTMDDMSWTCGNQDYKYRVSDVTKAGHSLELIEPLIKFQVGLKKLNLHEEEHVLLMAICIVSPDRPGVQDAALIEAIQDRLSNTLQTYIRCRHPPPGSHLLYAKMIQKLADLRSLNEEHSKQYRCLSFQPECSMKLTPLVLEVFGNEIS
Androgen receptor, sequence (P10275 whole entry): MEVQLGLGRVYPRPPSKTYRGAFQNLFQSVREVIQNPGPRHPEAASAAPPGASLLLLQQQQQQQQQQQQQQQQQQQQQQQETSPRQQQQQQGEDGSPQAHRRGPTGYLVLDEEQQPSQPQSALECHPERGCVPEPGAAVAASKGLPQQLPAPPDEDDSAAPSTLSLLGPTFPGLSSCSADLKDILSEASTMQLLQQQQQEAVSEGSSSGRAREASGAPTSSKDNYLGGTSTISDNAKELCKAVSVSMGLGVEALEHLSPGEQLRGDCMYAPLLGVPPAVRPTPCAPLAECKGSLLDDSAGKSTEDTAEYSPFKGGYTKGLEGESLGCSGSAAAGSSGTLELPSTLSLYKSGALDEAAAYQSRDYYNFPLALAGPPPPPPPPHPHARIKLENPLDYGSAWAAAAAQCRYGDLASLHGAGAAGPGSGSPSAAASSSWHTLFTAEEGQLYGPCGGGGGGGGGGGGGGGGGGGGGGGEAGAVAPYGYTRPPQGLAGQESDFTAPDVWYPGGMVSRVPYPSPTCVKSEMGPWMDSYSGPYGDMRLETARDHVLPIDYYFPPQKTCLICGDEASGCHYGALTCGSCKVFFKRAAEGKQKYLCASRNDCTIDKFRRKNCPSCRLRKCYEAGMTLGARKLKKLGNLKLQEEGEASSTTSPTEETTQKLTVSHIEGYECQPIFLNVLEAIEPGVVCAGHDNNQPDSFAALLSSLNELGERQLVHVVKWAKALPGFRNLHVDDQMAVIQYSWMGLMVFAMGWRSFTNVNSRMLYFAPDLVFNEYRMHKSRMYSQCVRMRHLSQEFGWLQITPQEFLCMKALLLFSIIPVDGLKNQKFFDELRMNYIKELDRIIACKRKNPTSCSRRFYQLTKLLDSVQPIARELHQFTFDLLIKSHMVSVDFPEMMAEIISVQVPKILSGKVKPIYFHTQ
Oxysterols receptor LXR-beta (Homo sapiens), sequence (P55055 whole entry): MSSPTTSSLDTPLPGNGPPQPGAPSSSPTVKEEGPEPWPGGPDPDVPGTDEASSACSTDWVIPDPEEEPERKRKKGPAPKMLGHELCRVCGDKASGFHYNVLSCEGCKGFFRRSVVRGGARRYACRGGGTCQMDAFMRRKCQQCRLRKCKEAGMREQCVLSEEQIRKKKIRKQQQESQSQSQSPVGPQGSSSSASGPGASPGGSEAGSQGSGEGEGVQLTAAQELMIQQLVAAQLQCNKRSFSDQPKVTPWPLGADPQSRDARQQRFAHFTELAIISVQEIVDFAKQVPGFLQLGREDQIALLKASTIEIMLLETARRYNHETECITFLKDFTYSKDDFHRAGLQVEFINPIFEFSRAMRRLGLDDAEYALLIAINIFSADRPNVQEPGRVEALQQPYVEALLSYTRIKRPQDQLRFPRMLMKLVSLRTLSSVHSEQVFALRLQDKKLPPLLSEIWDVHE
Nuclear receptor subfamily 1 group I member 2, sequence (O75469 whole entry): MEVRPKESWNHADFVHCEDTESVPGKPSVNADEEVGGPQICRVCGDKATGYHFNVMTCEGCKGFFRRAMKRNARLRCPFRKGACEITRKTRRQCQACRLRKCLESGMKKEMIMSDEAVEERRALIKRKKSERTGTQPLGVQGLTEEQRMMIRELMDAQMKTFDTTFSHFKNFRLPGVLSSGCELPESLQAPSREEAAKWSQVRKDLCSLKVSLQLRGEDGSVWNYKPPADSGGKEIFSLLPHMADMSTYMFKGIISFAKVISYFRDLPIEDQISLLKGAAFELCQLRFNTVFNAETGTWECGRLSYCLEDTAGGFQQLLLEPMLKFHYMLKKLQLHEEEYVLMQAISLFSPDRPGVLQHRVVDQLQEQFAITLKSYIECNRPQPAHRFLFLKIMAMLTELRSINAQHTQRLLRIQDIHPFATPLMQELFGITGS
Retinoic acid receptor gamma (Homo sapiens), sequence (P13631 whole entry): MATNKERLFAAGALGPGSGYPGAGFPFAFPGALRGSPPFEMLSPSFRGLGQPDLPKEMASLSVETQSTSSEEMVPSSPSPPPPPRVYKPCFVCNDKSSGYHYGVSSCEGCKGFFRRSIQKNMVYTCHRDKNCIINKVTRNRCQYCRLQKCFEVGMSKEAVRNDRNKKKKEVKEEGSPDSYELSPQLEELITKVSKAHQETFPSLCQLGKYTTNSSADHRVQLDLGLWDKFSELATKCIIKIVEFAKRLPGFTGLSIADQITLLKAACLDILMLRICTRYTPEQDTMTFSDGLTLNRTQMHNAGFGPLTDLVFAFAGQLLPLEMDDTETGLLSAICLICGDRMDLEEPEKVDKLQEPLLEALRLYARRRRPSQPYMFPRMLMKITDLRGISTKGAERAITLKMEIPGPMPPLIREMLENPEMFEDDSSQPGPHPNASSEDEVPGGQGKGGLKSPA

Tmax [1]: 10 h
pIC50 [2]: 5.00
Activity [3]: inactive
Activity [4]: inactive
Vd [5]: 3.3 L/kg
Activity [6]: 78.1 mg/dL
pIC50 [7]: 5.00
Activity [8]: inactive
Activity [10]: inactive
Activity [11]: inactive
clearance [12]: 5.68 mL/min/kg
inhibition [13]: 24%
Activity [14]: inactive
Activity [15]: inactive
Activity [16]: inactive
Activity [17]: Not Active
Activity [18]: inactive
Activity [19]: inactive
Activity [20]: inactive
SMILES: CC(C)OC(=O)C1=CN(C(=O)c2ccc(F)c(F)c2)CC(C)(C)c2c1[nH]c1ccccc21 [TUROFEXORATE ISOPROPYL]
Activity [9]: 18%
